Laboratory results from patent publication US12440500B2, “Phytoecdysones and the derivatives thereof for use in the treatment of neuromuscular diseases” (BIOPHYTIS, priority 2019, dated 2025).

Tests used:
Format in all cases: in vivo, mouse
[1] = system: SMA mice (FVB/NRj-SmnΔ7/Δ7 huSMN2+/+ 2 copies); test: Phenotypic analysis: weight and survival of severe SMA mice under daily gavage
From the text: A severe SMA mouse model was used on an FVB/NRj gene pool, characterized by the invalidation of the exon 7 of the murine gene Smn and expressing 2 copies of the human transgene SMN2 (Smn^Δ7/Δ7; huSMN2^+/+) (Hsieh et al., 2000). The mice resulting from these crossings having the “FVB/NRj-Smn^Δ7/Δ7 huSMN2^+/+ 2 copies” genotype are described as “SMA”. These mice are characterized by progressive growth failure which is observed starting from 4 days post-natal and have a degeneration of about 50% of the motor neurons of the ventral horn of the spinal cord at the end of life, progressive muscular atrophy and an average lifespan of about 12 days (Hsieh et al., 2000). The mice having the “FVB/NRj-Smn^+/Δ7 huSMN2^++ 2 copies” genotype have no particular phenotype and are used as so-called “control” mice. The mice were treated via daily gavage of a dose of 50 mg/kg, either with the molecule BIO101 complexed to a vehicle (cyclodextrin in the present case), or with the vehicle alone (VH). The weight and the survival were analyzed on a daily basis until P11. In the rest of the description, n corresponds to the size of the sample and p corresponds to the “p value” used to quantify the statistical significance of a result.
The same type II murine model was used to characterize the phenotypic effects of the molecule BIO103 in a severe SMA model. The mice were treated via daily gavage of a dose of 50 mg/kg, either with the molecule BIO103 complexed with the vehicle (cyclodextrin in the present case), or with the vehicle alone (VH). The weight and the survival were analyzed on a daily basis until P11.

ERK = test: Western blot, phosphorylation of ERK in SMA mice
[2] = system: motor neurons of the lumbar spinal cord of SMA mice; test: Motor neuron count, location and soma surface (anti-ChAT immunofluorescence, lumbar spinal cord)
Method: A quantitative and qualitative study of the populations of motor neurons on thick cross-sections of the lumbar region of the spinal cord (L1-L5) of healthy control mice or SMA treated with the vehicle or with BIO101 for 11 days was carried out via immunofluorescent labeling with Choline AcetylTransferase (ChAT) such as was described hereinabove (Biondi et al., 2008; Boyer et al., 2013). The analysis was then refined by a study of the different motor neuron sub-populations by characterizing their location in the spinal cord (lateral or medial position), as well as the distribution of the size of their soma.
The anesthetized mice underwent an intracardiac infusion with PBS. The spinal cords of the mice were taken, fixed then rinsed. The lumbar region of the spinal cords (L1-L5) was coated in a 4% solution of agarose. 50 μm cross-sections were made using a vibratome over the entire length of the sample. One section every 5 sections of spinal cord was then used for the immunohistochemical analyses. After a saturation with 0.1M glycine, the tissues were then permeabilized, blocked then marked with a goat polyclonal primary antibody anti-choline acetyltransferase (ChAT) ( 1/400^e). The sections are then washed then incubated with the anti-goat polyclonal secondary antibody coupled with Cyanine 3 (1:400^e). The cores are marked using Bisbenzimide ( 1/1,000^e) then the sections are washed again before being mounted with a photobleaching inhibitor of the fluorescent dyes. The specificity of the marking is verified thanks to a control marking carried out in the absence of the primary antibody.
The images were obtained using a camera mounted on a microscope with a magnification of ×200 and coupled to a central processing unit of the microcomputer type comprising in particular a suitable software for image acquisition. All of the counts were carried out using image processing software.
The quantitative analysis was then refined, on the one hand, by studying the different motor neuron sub-populations by analyzing their location in the spinal cord (lateral or medial position), and on the other hand, by studying the distribution of the surface of their soma.

[3] = system: neuromuscular junctions of muscles soleus, plantaris and tibialis of SMA mice; test: Morphological study of neuromuscular junction maturation (immunofluorescence)
SMA mice = test: Grip test (muscular fatigability)
Method: Phenotypic analyses of type 2 severe SMA mice treated or not starting from P0 with BIO101 were conducted. Longitudinally every two days, a test was conducted of the motor capacities of the mice from P5 to P9. The inventors evaluated the spontaneous displacement capacities by the open-field test, as well as the muscular fatigability by grip test, such as described hereinabove (Biondi et al., 2008; Branchu et al., 2013; Chali et al., 2016).
Indeed, the number of squares that they are able to cross is 10 at P5, 6 at P7 and 8 at P9 versus 17 at P5, 12 at P7 and 24 at P9 in the group of healthy control mice (with p<0.01, p<0.0001 and p<0.001 respectively). […] At P9, this difference is not significant but the treatment with BIO101 tends to have a beneficial effect with mice that are able to cross 11 squares in the group of SMA mice BIO101 in relation to 8 squares in the SMA Vehicle group, p=ns). In order to evaluate muscular fatigability, the gripping force of the hind feet of the mice was tested from P5 to P9 (grip test). The mice are suspended via their hind feet from a thin metal rod suspended in the air, horizontally. The time spent hanging on is recorded. Each mouse was subjected to five successive attempts with a rest period of one minute between two tests. Only the best test was retained for the evaluation of the muscular functions.

CC(C)(O)CC[C@@H](O)[C@](C)(O)[C@H]1CC[C@@]2(O)C3=CC(=O)[C@@H]4C[C@@H](O)[C@@H](O)C[C@]4(C)[C@H]3CC[C@]12C [BIO101, 20-hydroxyecdysone]
pre-P11 mortality ([1]; 50 mg/kg daily gavage P0 to P11, versus vehicle, p<0.05): significantly reduces
loss of weight of the animals ([1]; 50 mg/kg daily gavage from birth to P11, versus vehicle): significantly limit
level of phosphorylation of ERK (pERK) (ERK; muscle Plantaris, SMA mice treated P0 to P11): greatly decreased
level of pERK (ERK; spinal cord, SMA mice treated daily for 11 days): decreasing
loss of motor neurons in relation to healthy control mice ([2]; 11 days of daily treatment (SMA vehicle 25%)): 13%
number of motor neurons per section by semi-ventral spinal cord ([2]; 11 days of daily treatment, versus SMA vehicle, p<0.05): significantly higher
effect on the medial motor neurons ([2]; versus SMA vehicle): no significant effect
number of lateral motor neurons ([2]; versus SMA vehicle): higher
number of small motor neurons with a soma surface less than 300 μm^2 ([2]; versus SMA vehicle, p<0.05): significantly limiting
percentage of neuromuscular junctions of the perforated type ([3]; Soleus, treated daily from birth to P10, p<0.05 versus vehicle): 26.5%
percentage of neuromuscular junctions of the perforated type ([3]; Tibialis, treated daily from birth to P10, p<0.05 versus vehicle): 45.7%
percentage of immature plates ([3]; all the muscles tested, treated daily from birth to P10): decrease
percentage of neuromuscular junctions of the perforated type ([3]; muscle plantaris, treated daily from birth to P10, p=ns versus vehicle): 16.3%
hanging time (grip test) (SMA mice; P5, SMA mice (vehicle 0.2), p<0.05): 2.3 s
hanging time (grip test) (SMA mice; P7, SMA mice (vehicle 6.2), p=ns): 12.2 s
hanging time (grip test) (SMA mice; P9, SMA mice (vehicle 5.6), p<0.01): 20.9 s
